Several values for one entry are separate records, joined by “and”; a condition that tells them apart may be missing. Identical values can stand only once. *1 amine or outer side, *2 acyl side, *3 side chain or, on linkers, in order; H or OH if unused. Where a SMILES comes first, the peptide text is derived from it. Side-chain parts run from the residue outwards. [ ]: non-standard residue; d: D form. The star is where a group is joined. C20 diacid = O=C(O)CCCCCCCCCCCCCCCCCCC(=O)*; γGlu = O=C(O)[C@H](CCC(=O)[*:2])N[*:1]; εLys = N[C@@H](CCCCN[*:1])C(=O)[*:2]; αMeL = CC(C)C[C@](C)(N)C(=O)O; AEEA = NCCOCCOCC(=O)O; Aib = CC(C)(N)C(=O)O
How the values were obtained:
[1] = Pharmacokinetics in Yucatan mini-pigs, single subcutaneous or intravenous dose; format: in vivo
Description: Plasma concentrations of compounds were determined by LC/MS methods. For each assay, the compound and an internal standard (IS), were extracted from 100% mouse, rat, pig, or monkey plasma (70 μL) using Isopropanol-Methanol. Two distinct layers were formed upon centrifugation with the compound and the IS located in the supernatant layer. An aliquot of the supernatant (150 μL) was transferred to a Waters Sirocco Protein Precipitation Plate. The supernatant was eluted using a positive pressure manifold. The supernatant was mixed with 100-2 Water-Formic acid (400 μL) in a pretreated Sep-Pak tC18 SPE plate and eluted to waste. The peptide and IS were eluted with Acetonitrile-Formic acid (100 μL) in 2 steps (50 μL each step). The elution (40 μL) from SPE plate was mixed with diluent solution (1.875 μL 5× invitrosol and 3.125 μL 1% formic acid in water, 80 μL). A final sample (10 μl) was loaded onto a Xselect CSH C18 IS column (3.5 μm 2.1×20 mm). The column effluent was directed into a Thermo Fisher Scientific Orbitrap (Exploris 240) mass spectrometer for detection and quantitation.
Male Yucatan mini-pigs were administered a single subcutaneous dose or intravenous dose (19 or 99 nmol/kg) of compound in 40 mM Tris-HCl 5% D-mannitol (pH 8) at a volume of 0.01 or 0.05 mL/kg. Blood was collected from each animal at 0.083 (IV only), 0.5, 3, 6, 24, 48, 72, 96, 168, 240, 336, 408, and 504 hours postdose for pharmacokinetic characterization.

[2] = Pharmacokinetics in Sprague Dawley rats, single subcutaneous or intravenous dose (incl. 10, 30, 100 nmol/kg dose response); format: in vivo; conditions: for Tmax: read-out: Tmax
[3] = male Yucatan pigs, single subcutaneous dose 99 nmol/kg, individual animal
[4] = male, Yucatan mini-pig, minipig, plasma, iv, 99 nmol/kg, single intravenous dose 99 nmol/kg, mean
[5] = single intravenous dose 99 nmol/kg, male Yucatan pigs, individual animal
[6] = male, Sprague Dawley, rat, plasma, iv, 197 nmol/kg, single intravenous dose 197 nmol/kg, individual animal
[7] = male, Sprague Dawley, rat, plasma, iv, 197 nmol/kg, single intravenous dose 197 nmol/kg, mean
[8] = male, Sprague Dawley, rat, plasma, sc, 197 nmol/kg, single subcutaneous dose 197 nmol/kg, individual animal
[9] = male, Sprague Dawley, rat, plasma, sc, 197 nmol/kg, single subcutaneous dose 197 nmol/kg, mean
[10] = single intravenous dose 197 nmol/kg, male Sprague Dawley rats, individual animal
[11] = single subcutaneous dose 197 nmol/kg, male Sprague Dawley rats, individual animal
[12] = Yucatan mini-pig, minipig, plasma, sc, male Yucatan pigs, single subcutaneous dose 19 nmol/kg, Mean, read-out: AUC0-inf
[13] = Yucatan mini-pig, minipig, plasma, sc, male Yucatan pigs, single subcutaneous dose 19 nmol/kg, Mean, read-out: Cmax
[14] = male Yucatan pigs, single subcutaneous dose 19 nmol/kg, individual animal
[15] = male, Yucatan mini-pig, minipig, plasma, iv, 19 nmol/kg, single intravenous dose 19 nmol/kg, individual animal
[16] = male, Yucatan mini-pig, minipig, plasma, iv, 19 nmol/kg, single intravenous dose 19 nmol/kg, mean
[17] = male, Yucatan mini-pig, minipig, plasma, sc, 19 nmol/kg, single subcutaneous dose 19 nmol/kg, Mean
[18] = male, Yucatan mini-pig, minipig, plasma, sc, 19 nmol/kg, single subcutaneous dose 19 nmol/kg, Mean, read-out: CL/F (converted)
[19] = male, Yucatan mini-pig, minipig, plasma, sc, 19 nmol/kg, single subcutaneous dose 19 nmol/kg, Mean, read-out: Tmax
[20] = male, Yucatan mini-pig, minipig, plasma, sc, 19 nmol/kg, single subcutaneous dose 19 nmol/kg, individual animal
[21] = minipig, plasma, single intravenous dose 19 nmol/kg, male Yucatan pigs, mean, read-out: AUC0-inf
[22] = minipig, plasma, single intravenous dose 19 nmol/kg, male Yucatan pigs, mean, read-out: C0
[23] = single intravenous dose 19 nmol/kg, male Yucatan pigs, individual animal

CC[C@H](C)[C@H](NC(C)=O)C(=O)N[C@H](C(=O)N[C@H](C(=O)N[C@@H](CO)C(=O)N[C@@](C)(CC(C)C)C(=O)N[C@@H](CC(=O)O)C(=O)N[C@@H](C(=O)N1CCC[C@H]1C(=O)N[C@H](C(=O)NCC(=O)N[C@@](C)(CC(C)C)C(=O)N[C@@H](CC(C)C)C(=O)N[C@@H](CCC(N)=O)C(=O)N[C@H](C(=O)N[C@@H](CCCCN)C(=O)N[C@@H](CC(C)C)C(=O)N[C@@H](CCC(=O)O)C(=O)N[C@@H](CCC(N)=O)C(=O)N[C@@H](CCC(=O)O)C(=O)N[C@@H](CCCNC(=N)N)C(=O)N[C@@H](C)C(=O)N[C@@H](CCC(=O)O)C(=O)N[C@@H](CCCCN)C(=O)N[C@@H](C)C(=O)N[C@@H](CCCNC(=N)N)C(=O)N[C@@H](CCC(N)=O)C(=O)N[C@@H](CCC(N)=O)C(=O)N[C@@H](C)C(=O)N[C@@H](CCCCNC(=O)COCCOCCNC(=O)COCCOCCNC(=O)CC[C@H](NC(=O)CCCCCCCCCCCCCCCCCCC(=O)O)C(=O)O)C(=O)N[C@@H](CCC(=O)O)C(=O)N[C@@H](CC(N)=O)C(=O)N[C@H](C(=O)N[C@@H](CCC(=O)O)C(=O)N[C@H](C(=O)N[C@@H](CC(C)C)C(=O)N[C@@H](C)C(=O)N[C@@H](CCC(N)=O)C(=O)N[C@H](C(N)=O)C(C)C)[C@@H](C)CC)[C@@H](C)O)[C@@H](C)CC)[C@@H](C)O)C(C)C)[C@@H](C)O)C(C)C [SEQ ID NO: 29, Ac-IVTS αMeL D (D-Val) PTG αMeL LQIKLEQERAEKARQ QAK((2-[2-(2-Amino-ethoxy)-ethoxy]-acetyl)2-γE-CO-(CH2)18-CO2H)ENTEILAQV-NH2] (Ac-IVTS[αMeL]D[dV]PTG[αMeL]LQIKLEQERAEKARQQAK([AEEA-AEEA-γGlu-C20 diacid])ENTEILAQV-NH2)
AUC0-inf ([1]; Yucatan mini-pig, minipig, plasma, sc, male Yucatan pigs, single subcutaneous dose 99 nmol/kg, Mean, read-out: AUC0-inf): 76.4 µM·h
Cmax ([1]; Yucatan mini-pig, minipig, plasma, sc, male Yucatan pigs, single subcutaneous dose 99 nmol/kg, Mean, read-out: Cmax): 259 nM
AUC0-inf [1, 3]: 128 µM·h and 67.5 µM·h and 33.8 µM·h
CL/F [1, 3]: 24.7 mL/day/kg and 49.4 mL/day/kg and 85.4 mL/day/kg
Cmax [1, 3]: 497 nM and 201 nM and 79.6 nM
T1/2 [1, 3]: 292 h and 185 h
Tmax [1, 3]: 168 h
clearance ([1]; male, Yucatan mini-pig, minipig, plasma, iv, 99 nmol/kg, single intravenous dose 99 nmol/kg, individual animal): 7.7 mL/day/kg
clearance [1, 4]: 8.54 mL/day/kg
half-life [1, 4]: 166 h
half-life ([1]; male, Yucatan mini-pig, minipig, plasma, sc, 99 nmol/kg, single subcutaneous dose 99 nmol/kg, Mean): 214 h
CL/F ([1]; male, Yucatan mini-pig, minipig, plasma, sc, 99 nmol/kg, single subcutaneous dose 99 nmol/kg, Mean, read-out: CL/F (converted)): 53.3 mL/day/kg
Tmax ([1]; male, Yucatan mini-pig, minipig, plasma, sc, 99 nmol/kg, single subcutaneous dose 99 nmol/kg, Mean, read-out: Tmax): 72 h
half-life ([1]; male, Yucatan mini-pig, minipig, plasma, sc, 99 nmol/kg, single subcutaneous dose 99 nmol/kg, individual animal): 166 h
AUC0-inf ([1]; minipig, plasma, single intravenous dose 99 nmol/kg, male Yucatan pigs, mean, read-out: AUC0-inf): 285 µM·h
C0 ([1]; minipig, plasma, single intravenous dose 99 nmol/kg, male Yucatan pigs, mean, read-out: C0): 2490 nM
AUC0-inf [1, 5]: 307 µM·h and 220 µM·h and 329 µM·h
C0 [1, 5]: 2530 nM and 2560 nM and 2380 nM
CL [1, 5]: 10.8 mL/day/kg and 7.18 mL/day/kg
T1/2 [1, 5]: 109 h and 126 h and 263 h
clearance [2, 6]: 39.8 mL/day/kg
half-life [2, 6]: 41.7 h
clearance [2, 7]: 35.3 mL/day/kg
half-life [2, 7]: 45.5 h
half-life [2, 8]: 52.8 h
CL/F ([2]; male, Sprague Dawley, rat, plasma, sc, 197 nmol/kg, single subcutaneous dose 197 nmol/kg, individual animal, read-out: CL/F (converted)): 56.4 mL/day/kg
Tmax [2, 8]: 24 h
half-life [2, 9]: 47 h
CL/F ([2]; male, Sprague Dawley, rat, plasma, sc, 197 nmol/kg, single subcutaneous dose 197 nmol/kg, mean, read-out: CL/F (converted)): 59.5 mL/day/kg
Tmax [2, 9]: 24 h
AUC0-inf ([2]; rat, plasma, sc, single subcutaneous dose 197 nmol/kg, male Sprague Dawley rats, mean, read-out: AUC0-inf): 89.9 µM·h
Cmax ([2]; rat, plasma, sc, single subcutaneous dose 197 nmol/kg, male Sprague Dawley rats, mean, read-out: Cmax): 815 nM
AUC0-inf ([2]; rat, plasma, single intravenous dose 197 nmol/kg, male Sprague Dawley rats, mean, read-out: AUC0-inf): 136 µM·h
C0 ([2]; rat, plasma, single intravenous dose 197 nmol/kg, male Sprague Dawley rats, mean, read-out: C0): 4270 nM
AUC0-inf [2, 10]: 119 µM·h and 152 µM·h and 136 µM·h
C0 [2, 10]: 6910 nM and 4840 nM and 1050 nM
CL [2, 10]: 31.2 mL/day/kg and 34.8 mL/day/kg
T1/2 [2, 10]: 45.2 h and 49.6 h
AUC0-inf [2, 11]: 96.8 µM·h and 82.9 µM·h
CL/F [2, 11]: 62.6 mL/day/kg
Cmax [2, 11]: 881 nM and 749 nM
T1/2 [2, 11]: 41.1 h

Ac-GSPSIVTS[αMeL]DVPT[Aib][αMeL]LQKLLEQERAEKARQQAK([γGlu-AEEA-εLys-C20 diacid])EAAEILAQV-NH2 [SEQ ID NO: 2, Ac-GSPSIVTS αMeL DVPT Aib αMeL LQKLLEQERAEKARQQAK(γE-(2-[2-(2-Amino-ethoxy)-ethoxy]-acetyl)-ϵK-CO-(CH2)18-CO2H)EAAEILAQV-NH2]
AUC0-inf [1, 12]: 18.1 µM·h
Cmax [1, 13]: 107 nM
AUC0-inf [1, 14]: 24.4 µM·h and 11.7 µM·h
CL/F [1, 14]: 18.9 mL/day/kg and 39.1 mL/day/kg
Cmax [1, 14]: 154 nM and 60.4 nM
T1/2 [1, 14]: 90.8 h
Tmax [1, 14]: 6 h and 96 h
clearance [1, 15]: 15.6 mL/day/kg
half-life [1, 15]: 95.4 h
clearance [1, 16]: 14.6 mL/day/kg
half-life [1, 16]: 85.3 h
half-life [1, 17]: 80.8 h
CL/F [1, 18]: 29 mL/day/kg
Tmax [1, 19]: 51 h
half-life [1, 20]: 70.7 h
AUC0-inf [1, 21]: 30.9 µM·h
C0 [1, 22]: 694 nM
AUC0-inf [1, 23]: 28.9 µM·h and 32.8 µM·h
C0 [1, 23]: 809 nM and 578 nM
CL [1, 23]: 13.7 mL/day/kg
T1/2 [1, 23]: 75.1 h

Ac-PPPIVTS[αMeL]DVPT[Aib][αMeL]LQKLLEQERAEKARQQAK([γGlu-AEEA-εLys-C20 diacid])EAAEILAQV-NH2 [SEQ ID NO: 48, Ac-PPPIVTS αMeL DVPT Aib αMeL LQKLLEQERAEKARQQAK(γE-(2-[2-(2-Amino-ethoxy)-ethoxy]-acetyl)-ϵK-CO-(CH2)18-CO2H)EAAEILAQV-NH2]
AUC0-inf [1, 12]: 32.5 µM·h
Cmax [1, 13]: 149 nM
AUC0-inf [1, 14]: 29.3 µM·h and 35.6 µM·h
CL/F [1, 14]: 13.6 mL/day/kg
Cmax [1, 14]: 140 nM and 157 nM
T1/2 [1, 14]: 66.8 h
Tmax [1, 14]: 48 h and 6.0 h
clearance [1, 15]: 13.9 mL/day/kg
half-life [1, 15]: 86.7 h
clearance [1, 16]: 12.5 mL/day/kg
half-life [1, 16]: 88 h
half-life [1, 17]: 68.5 h
CL/F [1, 18]: 14.6 mL/day/kg
Tmax [1, 19]: 27 h
half-life [1, 20]: 70.1 h
CL/F ([1]; male, Yucatan mini-pig, minipig, plasma, sc, 19 nmol/kg, single subcutaneous dose 19 nmol/kg, individual animal, read-out: CL/F (converted)): 15.7 mL/day/kg
AUC0-inf [1, 21]: 36.9 µM·h
C0 [1, 22]: 943 nM
AUC0-inf [1, 23]: 32.5 µM·h and 41.2 µM·h
C0 [1, 23]: 899 nM and 987 nM
CL [1, 23]: 11 mL/day/kg
T1/2 [1, 23]: 89.2 h
